Experimental data: paper PMC8152814, “The modulatory role of sulfated and non-sulfated small molecule heparan sulfate-glycomimetics in endothelial dysfunction: absolute structural clarification, molecular docking and simulated dynamics, SAR analyses and ADMET studies” (RSC Medicinal Chemistry, 2021)

How the values were obtained:
[1] = Microsomal metabolic stability, rat liver microsomes; type: in vitro ADME; conditions: liver microsomes (pooled); for microsomal CLint at 0.75 h, 3 µM / microsomal CLint at 3 µM: pH 7.4; for half-life at 0.75 h, 3 µM / half-life at 3 µM: pH 7.4, 3 µM, 0.5 mg/mL protein, read-out: RLM t1/2
Protocol: Microsomal Metabolic Stability […]
the reaction. The final incubation volume is 50 µL. A minus cofactor control incubation is […]
NADPH (minus NADPH). Two control compounds are included with each species. All incubations are performed singularly for each test compound. Each compound is incubated for 0, 5, 15, 30 and 45 min. The control (minus NADPH) is incubated for 45 min. The reactions […]
Elimination rate constant (k) = (- gradient)
Intrinsic clearance (CLint)(µL/min/mg protein) = where V = Incubation volume (µL)/Microsomal protein (mg) […]
specified limits (if available).
(Molecular Devices LLC), which simultaneously performs electrophysiology measurements for […]
All cell suspensions, buffers and […]

[2] = Microsomal metabolic stability, mouse liver microsomes; conditions: liver microsomes (pooled), pH 7.4
Protocol: MLM assay (controls: diphenhydramine and diazepam). hERG assay (controls: quinidine and dimethylsulfoxide).
Pooled liver microsomes (final protein concentration 0.5 mg/mL), 0.1 M phosphate buffer pH
7.4 and test compound (final substrate concentration 3 µM; final DMSO concentration 0.25 %)
are pre-incubated at 37 °C prior to the addition of NADPH (final concentration 1 mM) to initiate
included for each compound tested where 0.1 M phosphate buffer pH 7.4 is added instead of
are stopped by transferring 20 µL of incubate to 60 µL methanol at the appropriate time points.
The termination plates are centrifuged at 2,500 rpm for 20 min at 4 °C to precipitate the protein.
Following protein precipitation, the sample supernatants are combined in cassettes of up to 4
compounds, internal standard is added and samples analysed using Cyprotex generic
LC-MS/MS conditions. From a plot of ln peak area ratio (compound peak area /internal
standard peak area) against time, the gradient of the line is determined. Subsequently, half-
life and intrinsic clearance are calculated using the equations below:
Relevant control compounds are assessed, ensuring intrinsic clearance values fall within the

[3] = system: nitric oxide (NO); experiment: NO release assay (DAF-2) in FFA-stressed cells; type: cell-based, human; conditions: averaged % of increase (+) or decrease (−) compared to control (FFA induced oxidatively stressed endothelial cells), n = 3
Excerpt: (§1) The assays focused on the production of nitric oxide (NO) and the upregulation of nitric oxide synthase (eNOS), the production of reactive oxygen species (ROS) and the activity of nicotinamide adenine dinucleotide phosphate (NADPH) oxidase (Table 2). From the hypothesised model of heparan sulfate-glycomimetic activity,[17] the glycomimetics are proposed to attenuate the binding of HGF to the cMET receptor. This disruption to MET-receptor activation is proposed to modulate intracellular phosphorylation leading to an upregulation of eNOS and increased output of extracellular NO. […] Overall, the cross examination of NO output and reduction of ROS was used to determine the therapeutic action of the triaged glycomimetics α-4, R-10, S-10 and β-5, as well as 3 non-sulfated intermediates α-2, α-3 and β-3, on free fatty acid (FFA) induced, oxidatively stressed endothelial cell cultures (Table 2).
(§2) Biological assay and AMDET experimental details […]
(§3) Preparation of FFA-albumin complexes and cell treatments
(§4) To generate the in vitro model of oxidative stress, sodium palmitate was bound to bovine serum albumin (BSA) as outlined by Chavez and Summers,S2 with modifications. Sodium palmitate (FFA) was dissolved in EtOH at 60 °C and diluted 1:100 in M199 media supplemented with 2% fatty acid-free bovine serum albumin (BSA) and incubated for 1 h at 37 °C. HepG2 cells were treated with 1 μmol/L of the synthesized HS-glycomimetics in the presence of palmitate (100 μmol/L) for 3 h or pre-treated with glycomimetics for 12 h followed by 3 h palmitate (100 μmol/L). Control cells were incubated in serum free M199 containing 2% (wt/vol) fatty acid-free BSA.
NO release assay and Quantification of ROS production
NO release was determined using diaminofluorescein-2 (DAF-2).S3 The cells were washed with PBS and incubated with L-arginine (100 μmol/L in PBS) for 5 min at 37 °C before incubation with DAF-2 (0.1 μmol/L) for 2 min, followed by the calcium ionophore calimycin (A23187, 1 μmol L) for 30 min. L-NAME (100 μmol/L), a nitric oxide inhibitor (NOS), was also added 20 min before the addition of L-arginine in some experiments to determine the involvement of NOS. DAF-2 fluorescence (arbitrary units, AU) was quantified using a microplate reader (BioTek) with excitation and emission wavelengths of 485 nm and 540 nm, respectively. The auto-fluorescence was subtracted from each value. […]
(§5) H2DCFDA, Sigma) for 30 min at 37 °C, and the level of fluorescence was determined (excitation 490 nm; emission 540 nm) using a microplate reader (BioTek).
(§6) The level of NADPH-enhanced superoxide anions (O2•−) in HepG2 homogenates was determined by lucigenin-enhanced chemiluminescence.S4 Following the various treatment conditions, cells were homogenized in a buffer (20 mmol/L H2KPO4 and 1 mmol/L EDTA supplemented with aprotinin, leuprotinin, pepstatin and PMSF). The total protein quantified using the Bicinchoninic acid (BCA) assay (Pierce Biotechnology). To 50 μg of total protein, NADPH (100 μmol/L) was added in a total volume of 500 μL, with lucigenin (5 μmol/L) and was injected automatically. Activity was determined by measuring luminescence over 200 s in a scintillation counter (Lumat LB 9507, Berthold, Germany). Basal values of NADPH oxidase activity were subtracted from the experimental values and expressed as RLU/min/μg protein […]
(§7) In situ quantification of ROS species
(§8) Superoxide dismutase (SOD) and catalase (CAT) activity assays, and in situ detection of vascular ROS content. The activity of the enzymes, SOD and CAT, was determined in cell homogenates using assay kits according to the manufacturer's instructions (Cayman; Cat No 706002 and 707002 respectively). A unit of SOD was defined as the amount of enzyme […]
(§9) Similarly, a unit of CAT was […]
(§10) defined as the amount required to form 1.0 nmol of formaldehyde per min at 25 °C.S5

[4] = system: eNOS; experiment: eNOS phosphorylation (Western blot) in FFA-stressed cells; type: cell-based, human; conditions: averaged % of increase (+) or decrease (−) compared to control (FFA induced oxidatively stressed endothelial cells), n = 3
Excerpt: as §1, §2, §3
as §4, with “BSA. […]” for “BSA.”
HepG2 wells were lysed in RIPA buffer containing proteinase inhibitors and the total protein was quantified using BCA protein assay kit (Pierce Biotechnology). Proteins (30 μg/well) were denatured and separated by sodium dodecyl sulfate (SDS)-polyacrylamide gel electrophoresis and transferred to polyvinylidene difluoride (PVDF) membranes. Blots were blocked for 1 h in 5% semi-skimmed milk/Tris-Buffered Saline Tween-20 (TBS-T), probed with primary rabbit anti-phospho-protein kinase B (Akt), rabbit anti-Akt (Santa Cruz Biotechnology), rabbit polyclonal anti-phospho-eNOS (Cell Signaling) overnight at 4 °C followed by washing and incubation with the corresponding horse radish peroxidase-labelled secondary antibody for 1 h at room temperature. After washing with TBS-T, membranes were incubated with ECL reagent and visualized (Amersham Pharmacia Biotech). Densitometry analysis using ImageJ© (version 1.32j, NIH) was used to quantify the protein signal.S7 […]
(typically 0.01 M phosphate buffered saline pH 7.4) so that the final DMSO concentration is 1 % and the final test compound concentrations are 1, 3, 10, 30 and 100 µM. The experiment is performed at 37 °C and each concentration is incubated in 7 replicate wells. The plates are incubated for 2 h at 37 °C before the absorbance is measured at 620nm. Nicardipine (pH dependent) and pyrene (pH independent) are included as control compounds. The solubility is estimated from the concentration of test compound that produces an increase in absorbance above vehicle control (1% DMSO in buffer).

[5] = system: NADPH oxidase; experiment: NADPH oxidase activity (lucigenin chemiluminescence) in cell homogenates; type: cell-based, human; parameters: concentration or dose not given beside the values; conditions: averaged % of increase (+) or decrease (−) compared to control (FFA induced oxidatively stressed endothelial cells), n = 3
Excerpt: as §1, §2, §3
as §4, with “BSA. […]” for “BSA.”
as §5, §6, §7, §8, §9, §10

Row | Compound | microsomal CLint at 0.75 h, 3 µM [1] [µL/min/mg] | half-life at 0.75 h, 3 µM [1] [h] | half-life at 0.75 h, 3 µM [2] [h] | microsomal CLint at 0.75 h, 3 µM [2] [µL/min/mg] | NO production [3] | eNOS phosphorylation [4] | NADPH oxidase activity [5] [%] | microsomal CLint at 3 µM [1] [µL/min/mg] | half-life at 3 µM [1] [h] | half-life at 3 µM [2] [h] | microsomal CLint at 3 µM [2] [µL/min/mg]
1 | COC(=O)c1cc(OC[C@H](COS(=O)(=O)[O-])OS(=O)(=O)[O-])ccc1OCCCCOS(=O)(=O)[O-].[Na+].[Na+].[Na+] [Compound R-10, sodium (R)-3-(3-(methoxycarbonyl)-4-(4-(sulfonatooxy)butoxy)phenoxy)propane-1,2-diyl bis(sulfate)] | 4.11 | 5.63 | 57.5 | 0.402 | +52% | +613% | −31 | – | – | – | –
2 | COC(=O)c1cc(OC[C@@H](COS(=O)(=O)[O-])OS(=O)(=O)[O-])ccc1OCC(COS(=O)(=O)[O-])OS(=O)(=O)[O-].[Na+].[Na+].[Na+].[Na+] (mixture of isomers) [α-4, sodium 3-(4-((S)-2,3-bis(sulfonatooxy)propoxy)-2-(methoxycarbonyl)phenoxy)propane-1,2-diyl bis(sulfate)] | – | – | – | – | +110% | +342% | −29 | 9.56 | 2.42 | 30.7 | 0.755
3 | COC(=O)c1cc(OC[C@@H](COS(=O)(=O)[O-])OS(=O)(=O)[O-])ccc1OCCCCOS(=O)(=O)[O-].[Na+].[Na+].[Na+] [Compound S-10, sodium (S)-3-(3-(methoxycarbonyl)-4-(4-(sulfonatooxy)butoxy)phenoxy)propane-1,2-diyl bis(sulfate)] | 12.8 | 1.82 | – | 0.333 | +63% | +397% | −27 | – | – | – | –
4 | O=C([O-])c1cc(OC[C@H](COS(=O)(=O)[O-])OS(=O)(=O)[O-])ccc1OCC(COS(=O)(=O)[O-])OS(=O)(=O)[O-].[Na+].[Na+].[Na+].[Na+].[Na+] (mixture of isomers) [β-5, sodium 5-((R)-2,3-bis(sulfonatooxy)propoxy)-2-(2,3-bis(sulfonatooxy)propoxy)benzoate] | – | – | – | – | +62% | +318% | −31 | 0.649 | 35.7 | 8.03 | 2.88
